# Results from patent US20050084471A1, “Concentrated antimicrobial compositions and methods” (3M Innovative Properties Company, priority 2003, published 2005).
# Legend:
# [1] = tested on: Staph. aureus, ATCC 25923; test: In vitro kill test of diluted formulations at 5° C., log reduction; format: cell-based, Staphylococcus aureus
# [2] = tested on: E. coli 0157:H7 (ATCC# 700728); test: Dip treatment of inoculated beef adipose, log reduction; format: cell-based; conditions: formulations diluted to 1% w/w + 2% lactic acid; for Log Reduction, 60 min at 5° C. / Log Reduction, 24 hours at 5° C.: 5 min treatment
# Procedure: Bacteria were grown in the same procedure described in Example 3. The bacteria strain was non-toxic E. coli 0157: H7 (ATCC# 700728).
# After inoculation, the meat pieces were placed in a cooler at 5° C. for 30+/−5 minutes to allow attachment of the organisms.
# A 11.4 cm^2 coring device was used to cut surface tissue excisions no thicker than 3 mm from the inoculated samples. The stainless steel coring device was disinfected prior to each run to prevent cross-contamination among the samples. Each circular tissue excision was placed in a filter stomacher bag with 15 ml of letheen diluent and stomached for 1 minuted prior to plating.
# A 11.4 cm^2 coring device was used to cut surface tissue excisions no thicker than 3 mm from the inoculated samples. The stainless steel coring device was disinfected prior to each run to prevent cross-contamination among the meat samples.
# The solution was shaken well until a milky emulsion formed. The emulsion solutions were used immediately after being made.
# The circles were removed immediately and the excess solution was allowed to drip from the circle for 5 sec.
# The circles were placed in stomacher bags. Two of them were placed into the refrigerator and the third was tested by adding 15 ml of Letheen diluent to the third stomacher bag. This bag was stomached for 1 minute prior to plating. Duplicate samples were plated from the undiluted sample in the stomacher bag. Serial ten-fold dilutions were made and plated on a [sequence] EB plate from each dilution. After incubation the plates were counted as recommended on the package insert. After 1 h refrigeration, one of the refrigerated stomacher bags was removed and the above steps repeated for the 1 h test circle. After 24 h refrigeration, the last of the stomacher bags was removed and the above steps repeated for the 24 h test circle.
# Plates were read after incubation and log reductions determined as indicated in Example 3.
smiles,measurement,setting,value
"CC(O)C(=O)O (stereo not drawn) [2% Lactic Acid, Lactic Acid]",Log Reduction,[1],<2.72 log
same,"Log Reduction, 60 min at 5° C.",[2]; solution at 5° C.,1.37 log
same,"Log Reduction, 24 hours at 5° C.",[2]; solution at 5° C.,2.26 log
same,"Log Reduction, 60 min at 5° C.",[2]; solution at 23° C.,1.74 log
same,"Log Reduction, 60 min at 5° C.",[2]; solution at 50° C.,2.43 log
same,"Log Reduction, 24 hours at 5° C.",[2]; solution at 50° C.,2.54 log
same,"Log Reduction, 5 min dip",[2]; solution at 5° C.,0.51 log
same,"Log Reduction, 5 min dip",[2]; solution at 23° C.,0.87 log
same,"Log Reduction, 5 min dip",[2]; solution at 50° C.,1.72 log
